Test system: Alternaria

SMILES: Nc1nc2cccc(-c3ccc(CN4CCS(=O)(=O)CC4)cc3)n2n1 [metabolite]
- activity after heating (heating to 80 degrees C. for one hour): not lost
- activity after treatment with acid (treated with acid): lost
- score against Alternaria after acid treatment (treated with acid, score before treatment 0, 0-5 scale): 5
- activity after treatment with base (treated with base): not lost
